From publication PMC11859184, “Synthesis and Evaluation of ^68Ga- and ^177Lu-Labeled [diF-Pro^14]Bombesin(6−14) Analogs for Detection and Radioligand Therapy of Gastrin-Releasing Peptide Receptor-Expressing Cancer” (Pharmaceuticals, 2025)
Read-outs that look alike come from different tables or passages of the source.

Assay: Ex vivo biodistribution of 177Lu-labeled ligands in PC-3 tumor-bearing mice
Settings: mouse; for tissue to tissue ratio at 1 h / tissue to tissue ratio at 4 h / tissue to tissue ratio at 24 h / tissue to tissue ratio at 72 h / tissue to tissue ratio at 120 h: male, NOD.Cg-Rag1^tm1Mom Il2rg^tm1Wjl/SzJ (NRG), iv, total radioactivity; for tissue to tissue ratio at 1 h / tissue uptake at 1 h: 1 h pi; for tissue to tissue ratio at 4 h / tissue uptake at 4 h: 4 h pi; for tissue to tissue ratio at 24 h / tissue uptake at 24 h: 24 h pi; for tissue to tissue ratio at 120 h / tissue uptake at 120 h: 120 h pi; for tissue uptake at 1 h / tissue uptake at 4 h / tissue uptake at 24 h / tissue uptake at 72 h / tissue uptake at 120 h: intravenous
Procedure: SPECT/CT imaging was conducted using an MI Labs (Houten, The Netherlands) U-SPECT-II/CT scanner with a custom-made ultra-high sensitivity big mouse collimator (2 mm pinhole size) following published procedure. The experiments were obtained in accordance with the same protocol established in the PET/CT imaging and ex vivo biodistributions section. The mice were used for SPECT/CT imaging and ex vivo biodistributions studies once the tumors reached a diameter of 5–8 mm. PC-3 tumor-bearing mice were sedated (2.5% isoflurane in O2) and injected with 31.4–36.9 MBq of the ^177Lu-labeled ligand through a lateral caudal tail vein. The mouse was imaged at 1, 4, 24, 72, and 120 h pi. At each time point, a 5 min CT scan was performed with 615 μA and 60 kV parameters for localization and attenuation, followed by two 30 min static SPECT scans in list mode with an energy window centered around 208 keV. The U-SPECT II software was used to reconstruct data, and the images were decay corrected to the time of injection with PMOD v 3.402 (PMOD Technologies GmbH, Fallanden, Switzerland).
For ex vivo biodistribution studies, the mice were injected with ~3–5 MBq of the ^177Lu-labeled ligand (n = 5). At 1, 4, 24, 72, and 120 h post-injection, the mice were anesthetized with 2% isoflurane, euthanized by CO2 inhalation, and the tissues/organs of interest were […] for radioactivity counting. The blocking study was performed at 1 h pi via co-injection of the ^177Lu-labeled ligand with 100 μg of [D-Phe^6,Leu-NHEt^13,des-Met^14]Bombesin(6–14).

[1] = tumor/blood, n = 5, read-out: Tumor/blood uptake ratio
[2] = tumor/kidney, n = 5, read-out: Tumor/kidney uptake ratio
[3] = tumor/muscle, n = 5, read-out: Tumor/muscle uptake ratio
[4] = tumor/pancreas, n = 5, read-out: Tumor/pancreas uptake ratio
[5] = PC-3 tumor, n = 5, read-out: PC-3 tumor uptake
[6] = adrenal glands, n = 5, read-out: Adrenal glands uptake
[7] = blood, n = 5, read-out: Blood uptake
[8] = bone, n = 5, read-out: Bone uptake
[9] = brain, n = 5, read-out: Brain uptake
[10] = fat, n = 5, read-out: Fat uptake
[11] = heart, n = 5, read-out: Heart uptake

CC(C)C[C@@H](CN1CC(F)(F)C[C@H]1C(N)=O)NC(=O)[C@H](Cc1c[nH]cn1)NC(=O)CN(C)C(=O)[C@@H](NC(=O)[C@H](C)NC(=O)[C@H](Cc1c[nH]c2ccccc12)NC(=O)[C@H](CCC(N)=O)NC(=O)[C@@H](Cc1ccccc1)NC(=O)CN1CCC(NC(=O)CN2CCN(CC(=O)O)CCN(CC(=O)O)CCN(CC(=O)O)CC2)CC1)C(C)C [[^177Lu]Lu-LW02080, metal not drawn]
tissue to tissue ratio at 1 h (tumor/blood, blocked (100 µg GRPR antagonist co-injected), read-out: Tumor/blood uptake ratio): 3.06 ± 0.99
tissue to tissue ratio at 1 h [1]: 16.9 ± 5.57
tissue to tissue ratio at 4 h [1]: 136 ± 14.7
tissue to tissue ratio at 24 h [1]: 365 ± 251
tissue to tissue ratio at 72 h (tumor/blood, 72 h pi, n = 5, read-out: Tumor/blood uptake ratio): 1300 ± 703
tissue to tissue ratio at 120 h [1]: 529 ± 380
tissue to tissue ratio at 1 h (tumor/kidney, blocked (100 µg GRPR antagonist co-injected), read-out: Tumor/kidney uptake ratio): 0.52 ± 0.08
tissue to tissue ratio at 1 h [2]: 2.17 ± 0.49
tissue to tissue ratio at 4 h [2]: 1.61 ± 0.3
tissue to tissue ratio at 24 h [2]: 1.34 ± 0.38
tissue to tissue ratio at 72 h (tumor/kidney, 72 h pi, n = 5, read-out: Tumor/kidney uptake ratio): 2.17 ± 0.33
tissue to tissue ratio at 120 h [2]: 2.77 ± 0.65
tissue to tissue ratio at 1 h (tumor/muscle, blocked (100 µg GRPR antagonist co-injected), read-out: Tumor/muscle uptake ratio): 14.6 ± 2.5
tissue to tissue ratio at 1 h [3]: 90 ± 17.3
tissue to tissue ratio at 4 h [3]: 275 ± 35
tissue to tissue ratio at 24 h [3]: 149 ± 50.5
tissue to tissue ratio at 72 h (tumor/muscle, 72 h pi, n = 5, read-out: Tumor/muscle uptake ratio): 356 ± 110
tissue to tissue ratio at 120 h [3]: 214 ± 77.9
tissue to tissue ratio at 1 h (tumor/pancreas, blocked (100 µg GRPR antagonist co-injected), read-out: Tumor/pancreas uptake ratio): 6.53 ± 0.76
tissue to tissue ratio at 1 h [4]: 14.8 ± 2.39
tissue to tissue ratio at 4 h [4]: 48.1 ± 11.3
tissue to tissue ratio at 24 h [4]: 26.5 ± 4.82
tissue to tissue ratio at 72 h (tumor/pancreas, 72 h pi, n = 5, read-out: Tumor/pancreas uptake ratio): 46.8 ± 13.9
tissue to tissue ratio at 120 h [4]: 51.5 ± 13.9
tissue uptake at 1 h (PC-3 tumor, 100 ug, blocked (100 µg GRPR antagonist co-injected), read-out: PC-3 tumor uptake): 2.02 ± 0.44 %ID/g
tissue uptake at 1 h [5]: 5.67 ± 1.02 %ID/g
tissue uptake at 4 h [5]: 2.96 ± 0.37 %ID/g
tissue uptake at 24 h [5]: 1.12 ± 0.2 %ID/g
tissue uptake at 72 h (PC-3 tumor, 72 h pi, n = 5, read-out: PC-3 tumor uptake): 0.55 ± 0.15 %ID/g
tissue uptake at 120 h [5]: 0.32 ± 0.06 %ID/g
tissue uptake at 72 h (PC-3 tumor, after 72 h pi, read-out: tumor uptake): < 1 %ID/g
tissue uptake at 1 h (adrenal glands, 100 ug, blocked (100 µg GRPR antagonist co-injected), read-out: Adrenal glands uptake): 0.23 ± 0.06 %ID/g
tissue uptake at 1 h [6]: 0.18 ± 0.05 %ID/g
tissue uptake at 4 h [6]: 0.17 ± 0.09 %ID/g
tissue uptake at 24 h [6]: 0.12 ± 0.05 %ID/g
tissue uptake at 72 h (adrenal glands, 72 h pi, n = 5, read-out: Adrenal glands uptake): 0.02 ± 0.01 %ID/g
tissue uptake at 120 h [6]: 0.03 ± 0.02 %ID/g
tissue uptake at 1 h (blood, 100 ug, blocked (100 µg GRPR antagonist co-injected), read-out: Blood uptake): 0.74 ± 0.18 %ID/g
tissue uptake at 1 h [7]: 0.37 ± 0.14 %ID/g
tissue uptake at 4 h [7]: 0.02 %ID/g
tissue uptake at 24 h [7]: 0.01 ± 0.01 %ID/g
tissue uptake at 1 h (bone, 100 ug, blocked (100 µg GRPR antagonist co-injected), read-out: Bone uptake): 0.07 ± 0.04 %ID/g
tissue uptake at 1 h [8]: 0.06 ± 0.01 %ID/g
tissue uptake at 4 h [8]: 0.01 %ID/g
tissue uptake at 24 h [8]: 0.02 ± 0.01 %ID/g
tissue uptake at 72 h (bone, 72 h pi, n = 5, read-out: Bone uptake): 0.01 ± 0.01 %ID/g
tissue uptake at 120 h [8]: 0.01 ± 0.01 %ID/g
tissue uptake at 1 h (brain, 100 ug, blocked (100 µg GRPR antagonist co-injected), read-out: Brain uptake): 0.02 ± 0.01 %ID/g
tissue uptake at 1 h [9]: 0.02 %ID/g
tissue uptake at 4 h [9]: 0.01 %ID/g
tissue uptake at 1 h (fat, 100 ug, blocked (100 µg GRPR antagonist co-injected), read-out: Fat uptake): 0.09 ± 0.04 %ID/g
tissue uptake at 1 h [10]: 0.04 ± 0.02 %ID/g
tissue uptake at 4 h [10]: 0.01 ± 0.01 %ID/g
tissue uptake at 24 h [10]: 0.01 %ID/g
tissue uptake at 1 h (heart, 100 ug, blocked (100 µg GRPR antagonist co-injected), read-out: Heart uptake): 0.23 ± 0.05 %ID/g
tissue uptake at 1 h [11]: 0.13 ± 0.05 %ID/g
tissue uptake at 4 h [11]: 0.03 ± 0.01 %ID/g
tissue uptake at 24 h [11]: 0.02 ± 0.01 %ID/g
tissue uptake at 72 h (heart, 72 h pi, n = 5, read-out: Heart uptake): 0.01 %ID/g
